Test results reported in PubChem BioAssay AID179 (DTP/NCI, 2004).
pEC50, pIC50: −log10 of the molar value. Several values for one entry are separate records, joined by “and”; a condition that tells them apart may be missing. Equal entries are not always repeated. Activity calls are given as the source filed them.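 Rule for the calls: active = compounds giving half or more protection of infected cells from virus-caused growth loss, again on retest; inactive = the rest.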

Tested on: CEM cells HIV-1 protection, formazan growth assay
Assay: NCI AIDS Antiviral Assay
Details: for pIC50: measured here: growth of uninfected CEM cells
Summary of the method: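 Protection of CEM cells against HIV-1 was scored from cell growth (soluble formazan) across five concentrations, with parallel uninfected cells. Lack of protection may reflect toxicity.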

| Compound | pEC50 | pIC50 | outcome |
| --- | --- | --- | --- |
| CCOC(=O)/C=C\c1c(Cl)n(-c2ccccc2)c(=O)n(-c2ccccc2)c1=O | < 3.70 | 4.50 | – |
| O=C(/C=C/c1cccs1)c1ccc(Cl)cc1 | – | – | inactive |
| C[Si](C)(C)C#CC#C[Si](C)(C)C.[C-]#[O+].[C-]#[O+].[C-]#[O+].[C-]#[O+].[C-]#[O+].[C-]#[O+].[C-]#[O+].[C-]#[O+].[C-]#[O+].[C-]#[O+].[C-]#[O+].[C-]#[O+].[Co].[Co].[Co].[Co] | < 5.72 | < 5.72 | – |
| CC(=O)c1sc2c(c1OC(=O)c1ccccc1)c(=O)n(-c1ccccc1)c(=S)n2-c1ccccc1 | < 5.70 | 7.20 | – |
| CC(C(=O)NCCNC(=O)CCCC(=O)N(C)O)C(=O)NCCNC(=O)CCCC(=O)N(C)O | < 3.70 | < 3.70 | – |
| COC(=O)c1c(C#C[Si](C)(C)C)c(C#C[Si](C)(C)C)c(C#C[Si](C)(C)C)c(C#C[Si](C)(C)C)c1C(=O)OC | < 4.30 | < 4.30 | – |
| O=C(O)CN1CCNCCN(CC(=O)O)CC1 | < 4.00 | 5.01 | – |
| CC1C(=O)C2C1CS2(=O)=O (stereo unspecified) | < 2.90 | 2.95 | – |
| Cc1ccc(S(=O)(=O)N/N=C2\C3CC4CC(C3)C2C4)cc1 (stereo unspecified) | < 3.70 | 4.02 | – |
| Cc1ccc2c(c1-c1c(C)ccc3c1C(=O)c1ccccc1C3=O)C(=O)c1ccccc1C2=O | < 3.70 | 5.11 | – |
| O=C(Nc1ccccc1)OCCN=C1c2ccccc2CCc2ccccc21 | < 3.70 | 4.73 | – |
| C(=C/P(c1ccccc1)c1ccccc1)/P(c1ccccc1)c1ccccc1.C(=CP(c1ccccc1)c1ccccc1)P(c1ccccc1)c1ccccc1.[Pt] | < 5.44 | 5.58 | – |
| CCN(CC)CCNc1ccc2ncn3c4c(OC)cccc4c(=O)c1c23 | < 4.30 | 6.06 | – |
| CCOC(=O)c1sc2c(C(=O)OCC)c3ccccn3c2c1C | – | – | inactive |
| COc1c(C)c(-c2c(C)c(OC)c3c(c2OC)OCO3)c(OC)c2c1OCO2 | < 3.70 | 3.77 | – |
| COc1nc2cc3c(cc2n2cccc12)oc1ccccc13 | 3.81 | < 3.70 | – |
| C=CCP(=O)(c1ccccc1)c1ccccc1 | 7.20 | < 3.70 | – |
| CC(=O)/C(=C/c1ccc(Br)cc1)C(=O)c1ccccc1 | – | – | inactive |
| CC(=O)Nc1ccc2nncnc2c1 | < 3.70 | < 3.70 | – |
| Nc1ncnc2c1ncn2C1C(O)C(CO)C1CO (stereo unspecified) | < 3.73 | < 3.73 | – |
| Cn1c2c(c3ccccc31)CCN=C2C1CCCOC1=O (stereo unspecified) | < 3.70 | < 3.70 | – |
| COC(=O)/C=C\C(C#N)(C#N)N=Cc1ccc(C)s1 | < 5.70 | 6.24 | – |

| Compound | pEC50 | pIC50 | outcome |
| --- | --- | --- | --- |
| CCCCCC1OC1(c1cc(Br)c(OC)c(C(=O)OC)c1)c1cc(Br)c(OC)c(C(=O)OC)c1 (stereo unspecified) | < 3.70 | 4.17 | – |
| CC(=O)Nc1ccc(C(=O)CCC(NC(C)=O)C(=O)O)cc1 (stereo unspecified) | < 3.70 | < 3.70 | – |
| O=S(=O)(Nc1nc2ccccc2nc1Nc1ccc2ccccc2c1)c1ccccc1 | < 3.70 | 4.98 | – |
| CC(C)(C)N1C(=O)[N+]2(CCCCC2)N=C1[O-] | < 5.35 | < 5.35 | – |
| COc1ccc(/C=N/N=C(N)N)c(C(=O)O)c1OC | – | – | inactive |
| OCCC(Sc1ccccc1)Sc1ccccc1 | – | – | inactive |
| CN1c2c(nc(N)[nH]c2=O)NCC1CCNc1ccc(C(=O)NC(CCC(=O)O)C(=O)O)cc1 (stereo unspecified) | < 3.62 | 3.69 | – |
| O=C(NCCOC(=O)OCCNC(=O)NC1CCCCC1)NC1CCCCC1 | < 3.70 | < 3.70 | – |
| CCOC(=O)C1=C(O)c2c(sc(C)c2C)N(S(=O)(=O)c2ccc(C)cc2)CC1 | < 3.70 | 4.28 | – |
| COc1cc2cccc(N=Cc3cccc(OC)c3OC(C)C)c2cc1OC | < 4.88 | < 4.88 | – |
| Cc1cc(NS(=O)(=O)c2ccc(N=[N+]([O-])c3ccc(S(=O)(=O)Nc4cc(C)on4)cc3)cc2)no1 | < 3.70 | < 3.70 | – |
| CSc1cc(Br)ccc1-n1c(C(=O)c2ccccc2)c(SC)n(-c2ccccc2)c1=O | < 3.70 | 4.84 | – |
| COc1cc(/C=C2\SC(=S)N(C=C3C(=O)NC(=O)NC3=O)C2=O)cc(OC)c1OC | < 3.70 | 4.63 | – |
| COc1cc(OC)c(-c2oc3ccccc3c(=O)c2O)c(OC)c1 | – | – | inactive |
| CCOC(=O)C(C)(C)Oc1ccc(N=[N+]=[N-])cc1 | < 3.70 | < 3.70 | – |
| O=C(O)C(Cc1ccc2c(c1)CCC2)(Cc1ccc2c(c1)CCC2)C(=O)O | < 3.70 | < 3.70 | – |
| C(=C\c1ccccc1)/COc1ccccc1C(N1CCOCC1)n1nc2ccccc2n1 (stereo unspecified) | < 3.70 | 5.17 | – |
| CCCCc1ccc(OC2OC(COC(C)=O)C(OC(C)=O)C(OC(C)=O)C2OC(C)=O)cc1 (stereo unspecified) | < 4.03 | 4.31 and < 4.03 | – |
| COc1cc2oc3ccccc3c(=O)c2cc1CSc1ccccc1N | < 4.84 | 4.96 | – |
| CCOC(=O)C1C(c2ccc(OC)cc2)c2c([nH][nH]c2=O)CC1(O)OCC (stereo unspecified) | – | – | inactive |
| COC(=O)c1ccc(C)cc1C1CN=NC12Cc1cccc(C)c1C2=O (stereo unspecified) | < 3.70 | < 3.70 | – |
| O=C1CCCCCCCCCCC(=O)C2CCOCCOCCOCCC1Cc1cccc(n1)C2 | < 3.86 | < 3.86 | – |

| Compound | pEC50 | pIC50 | outcome |
| --- | --- | --- | --- |
| O=C1c2cc3c(cc2CC12Cc1cc4c(cc1C2=O)CCC4)CCCC3 (stereo unspecified) | < 3.70 | < 3.70 | – |
| O=c1ccn(C2OC(CO)C(O)C2F)c(=O)n1Cc1ccccc1 (stereo unspecified) | < 3.70 | < 3.70 | – |
| O=C1C2c3[nH]c4ccccc4c3[C@@H]3CCCCCCCCCCC3C2C(=O)N1c1ccccc1 (stereo partly specified) | – | – | inactive |
| CC1(C)OC(=O)C(=Cc2ccccc2F)C(=O)O1 | < 3.42 | 4.15 | – |
| CC1C(c2ccc(N(C)C)cc2)c2cc3c(cc2OC1N1CCCC1)OCO3 (stereo unspecified) | < 4.00 | 4.77 | – |
| COC(=O)CNC(=O)C(CSC(=O)OCC1c2ccccc2-c2ccccc21)NC(=O)CCC(NC(=O)OCC1c2ccccc2-c2ccccc21)C(=O)OC (stereo unspecified) | < 3.70 | 4.53 | – |
| O=C1C(Cl)=CC(=C2C=C(Cl)C(=O)C(Cl)=C2)C=C1Cl | < 3.70 | 4.37 | – |
| O=C1CSC(c2ccccc2O)N1c1ccc(Oc2ccc(Cl)cc2)c(Cl)c1 (stereo unspecified) | < 4.00 | 4.62 | – |
| O=C1CNC(=O)c2c(ncn2C2OC(CO)C(O)C2O)N1 (stereo unspecified) | < 3.67 | < 3.67 | – |
| CC(=O)/C(N=Nc1ccc(-n2c(C)nc3ccc(Br)cc3c2=O)cc1)=C(/C)O | < 3.70 | 3.83 | – |
| COc1ccc(OC)c(NC(=O)CCC/C(CC(=O)c2ccc(O)c(OC)c2)=N\Nc2ccc([N+](=O)[O-])cc2)c1 | < 4.88 | < 4.88 | – |
| Nc1cc(Cl)cc2cc(Cl)cnc12 | < 3.70 | 3.93 | – |
| CCCCCCCCCCCCCC1=C(O)C(=O)C(CC2=C(O)C(=O)C(CCCCCCCCCCCCC)=C(O)C2=O)=C(O)C1=O | < 4.77 | < 4.77 | – |
| CC(C)CC(NC(=O)c1cccc(O)c1O)C(=O)NCc1cc(CNC(=O)C(CC(C)C)NC(=O)c2cccc(O)c2O)cc(CNC(=O)C(CC(C)C)NC(=O)c2cccc(O)c2O)c1 (stereo unspecified) | – | – | inactive |
| COc1cc2cnc3c4cc(OC(C)C)c(OC)cc4ccc3c2cc1OC | – | – | inactive |
| COC(=O)c1ccccc1NC(=O)/C(=N\NC(C)(C)C)C(C#N)c1nc(-c2ccc([N+](=O)[O-])cc2)cs1 (stereo unspecified) | < 4.16 | < 4.16 | – |
| Nc1nc(-c2ccccc2)nc2oc(-c3cccs3)nc12 | < 3.70 | < 3.70 | – |
| O=C1NC(=O)C(=Cc2ccc([N+](=O)[O-])cc2)C(=O)N1 | < 3.86 | < 3.86 | – |
| N#Cc1ccsc1Nc1ccccc1[N+](=O)[O-] | 4.02 | < 3.70 | – |
| CN1CCC(O)(C(C)(C)C)CC1 | < 3.70 | < 3.70 | – |
| O=C(/C=C/c1ccccc1)Oc1cccc(Br)c1 | < 3.70 | 4.75 | – |
| CN1C(=O)c2ccccc2Sc2ccccc21 | 5.19 | 3.94 | – |

| Compound | pEC50 | pIC50 | outcome |
| --- | --- | --- | --- |
| CCCCc1ccc(OC2OC(CO)C(O)C(O)C2O)cc1 (stereo unspecified) | < 3.54 | – | – |
| O=C(O)c1c[nH]n2c(=S)ncnc12 | < 3.06 | < 3.06 | – |
| CN(C)/C=N\c1c(C#N)c(CC#N)nn1-c1ccccc1 | < 3.70 | < 3.70 | – |
| c1ccc2c(c1)[nH]c1scc[n+]12 | – | – | inactive |
| COc1ccc(NC(=O)CC(=O)n2nc(C)c(N=Nc3ccc(C)c(C)c3)c2C)cc1 | < 3.70 | < 3.70 | – |
| COc1cc2c3c(c1OC)-c1cc(O)ccc1C[C@H]3NCC2 | – | – | inactive |
| Cc1ccc(-n2nc(C(OC3OC(CO)C(O)C(O)C3O)C(O)CO)c3nc4cc(C)c(C)cc4nc32)cc1 (stereo unspecified) | – | – | inactive |
| N#Cc1cc([N+](=O)[O-])ccc1NC(=O)C(=O)C(C(=O)c1ccc2ccccc2c1)C1OCc2ccccc21 (stereo unspecified) | < 4.15 | 4.43 | – |
| COc1cccc(/C=N/[N-]C(=O)c2ccncc2)c1[O-].[Ni+2].[OH3+] | < 3.98 | < 3.98 | – |
| O=C1CCCC1C(O)(C(F)(F)F)C(F)(F)F (stereo unspecified) | < 3.70 | < 3.70 | – |
| CCCCCCCCCCC(c1cc(Cl)c(OC)c(C(=O)OC)c1)c1cc(Cl)c(OC)c(C(=O)OC)c1 | < 4.41 | < 4.41 | – |
| Cc1cc(C)c(C2[C@H]3C(=O)N(c4ccc(Cc5ccc(N6C(=O)[C@@H]7ON(c8ccccc8)C(c8c(C)cc(C)cc8C)[C@@H]7C6=O)cc5)cc4)C(=O)[C@H]3ON2c2ccccc2)c(C)c1 (stereo partly specified) | < 4.65 | < 4.65 | – |
| CC(C)(C)CC1=COC(C=O)(CC(C)(C)C)CC1 (stereo unspecified) | < 3.99 | < 3.99 | – |
| COc1ccc(C)cc1-c1cc(Sc2ccccc2)c(-c2cc(C)ccc2OC)o1 | < 4.27 | < 4.27 | – |
| C/C=C/C[P+](Cc1ccccc1)(c1ccccc1)c1ccccc1 | < 3.22 | 5.38 | – |
| COc1ccc(-n2nc3c(N)nnc-3nc2-c2ccccc2)cc1 | < 5.39 | < 5.39 | – |
| N#Cc1ccc(S(=O)(=O)c2ccc(C#N)cc2)cc1 | < 3.70 | < 3.70 | – |
| C#CCN1CCC2=C(C1)c1c(O)cc(C(C)C(C)CCCCC)cc1OC2(C)C (stereo unspecified) | < 4.49 | 4.83 | – |
| O=c1oc2c(c(=O)n1-c1ccccc1)CC1(CCCCC1)C2 | < 3.70 | < 3.70 | – |
